Experimental data: publication PMC10204090, “TFBMiner: A User-Friendly Command Line Tool for the Rapid Mining of Transcription Factor-Based Biosensors” (ACS Synthetic Biology, 2023)

Target: T1, P. hospita MdlR (C2L64_43720) (Paraburkholderia hospita, UniProt A0AAN1MPU5)
T1 construct: gene WQE_50835; full-length LysR-type regulator, gene codon-optimised for E. coli, expressed from Ptrc in E. coli NEB 5-alpha; rfp reporter under P. hospita PmdlC (PC2L64_43715)
T1 sequence (A0AAN1MPU5 1-297): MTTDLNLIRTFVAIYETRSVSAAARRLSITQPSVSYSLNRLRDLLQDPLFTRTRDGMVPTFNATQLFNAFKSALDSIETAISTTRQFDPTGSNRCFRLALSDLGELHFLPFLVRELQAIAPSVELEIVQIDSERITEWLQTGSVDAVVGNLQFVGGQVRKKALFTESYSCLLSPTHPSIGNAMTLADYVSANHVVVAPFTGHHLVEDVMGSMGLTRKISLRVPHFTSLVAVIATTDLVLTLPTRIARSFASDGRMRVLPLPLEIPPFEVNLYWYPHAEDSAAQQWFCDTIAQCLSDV
Experiment: E. coli whole-cell RFP reporter assay, Hill fit
Assay type: cell-based
Conditions: read-out: Km ^a
Excerpt: E. coli whole-cell RFP reporter assay, Hill fit on P. hospita MdlR (C2L64_43720)

EC50 [µM]	Compound
167	O=C(O)[C@@H](O)c1ccccc1 [compound 1, S-mandelate]
93	O=C(O)C(=O)c1ccccc1 [compound 4, phenylglyoxylate]
